Data on one molecule can be found in US20220160651A1, “RAPIDLY IMPROVING ENDOTHELIAL FUNCTION, REDUCING ARTERIAL STIFFNESS AND REVERSING CALCIFICATION OF BLOOD VESSELS BY ADMINISTERING VITAMIN K” (KAYDENCE PHARMA AS, priority 2019, published 2022).

The structures appear in SMILES notation.

Series [1] has as its system kidney transplantation patients. In words: Clinical study: non-invasive pulse wave velocity measurement of arterial stiffness. The class given is in vivo, human. The settings on record: 360 ug/day, after 8 weeks of treatment, kidney transplant patients. The procedure:
Clinical Study to study the efficacy and safety of Vitamin K2 supplementation on arterial stiffness, the rigidity of arterial walls, in kidney transplantation patients.
A clinical study was carried out. Arterial wall property measurements were taken at t=0 and t=8 weeks and show a dramatic improvement in arterial wall flexibility. This is good support for concluding that the ingestion of vitamin K, even over this short period, is an effective way of improving endothelial function, reducing arterial stiffness and reducing calcification. […] It is surprising and unexpected because calcification is a slow progressive process and it was thought that reversing this process would also be slow and progressive.
Participants were enrolled in a clinical trial in which the effects of vitamin K2 were determined for patients who had recently undergone a kidney transplant. At the beginning of the study, patients were subjected to a non-invasive pulse wave velocity measurement to measure arterial stiffness/flexibility, as well as blood analysis. The study participants were then instructed to receive a specific daily dose of MenaQ7 vitamin K2 menaquinone-7 (360 ug/day) for a total of 8 weeks. At the end of 8 weeks, patients were again examined with a follow-up examination, a non-invasive pulse wave velocity measurement and blood analysis and drug treatment was discontinued.

Series [2] relates to ApoE/LDLR−/− mice. In words: Nitrite and nitrate concentration in plasma, HPLC-based ENO-20 (Example 2). The class given is in vivo. The settings on record: two months; for increase in NO2− concentration in plasma: vs untreated. The procedure: Nitrite (NO2^−) and nitrate (NO3^−) concentration in plasma—HPLC-based ENO-20
Blood samples were collected from heart into test tubes containing additional anticoagulant and centrifuged at 1000 g for 10 min at 4° C. The samples were used for HPLC measurement of nitrate (NO3^−) and nitrite (NO2^−) concentrations in plasma by an ENO-20 NOx Analyzer.

The subject of series [3] is ApoE/LDLR−/− mice. In words: MRI assessment of endothelium-dependent vasodilatation (FMD in femoral artery, Ach response in abdominal aorta), young mice (Example 3). The class given is in vivo. The procedure: Mice were randomly assigned to one of four experimental groups: control (untreated group) and three groups treated with vitamin K2 at a dose of 0.05, 0.5, and 5 mg/kg b.w./day, respectively. End-point measurements were performed at the age of 10-16 weeks.
Magnetic resonance imaging (MRI) experiments were performed using a 9.4T scanner (BioSpec 94/20 USR, Bruker, Germany) located in the Department of Magnetic Resonance Imaging, Institute of Nuclear Physics, Polish Academy of Sciences in Krakow. During the experiment, mice were anaesthetized using isoflurane (Aerrane, Baxter Sp. z o. o., Poland, 1.7 vol %) in an oxygen and air (1:2) mixture and imaged in the supine position. Activity of the heart, respiration, and body temperature (maintained at 37° C. using circulating warm water) were monitored using a Monitoring and Gating System (SA Inc., Stony Brook, N.Y., USA).
Endothelial function was assessed based on vascular responses to acetylcholine (Ach) administration in brachiocephalic artery (BCA), left common carotid artery (LCA) (FIGS. 6 A and B) and abdominal aorta (AA) (FIG. 6C) as well as to responses to increase in flow (flow-mediated dilatation, FMD) in femoral artery (FA) (FIG. 6D) as described in Bar A, Skorka T, Jasinski K, Sternak M, Bartel Ż, Tyrankiewicz U, et al. Retrospectively-gated MRI for in vivo assessment of endothelium-dependent vasodilatation and endothelial permeability in murine models of endothelial dysfunction. NMR Biomed 2016; 29(8):1088.; Sternak M, Bar A, Adamski M G, Mohaissen T, Marczyk B, Kieronska A, et al. The Deletion of Endothelial Sodium Channel α (αENaC) Impairs Endothelium-Dependent Vasodilation and Endothelial Barrier Integrity in Endotoxemia in Vivo. Front Pharmacol 2018; 9:178. doi:10.3389/fphar.2018.00178.; and Bar A, Olkowicz M, Tyrankiewicz U, Kus E, Jasinski K, Smolenski R T, et al. Functional and Biochemical Endothelial Profiling In Vivo in a Murine Model of Endothelial Dysfunction; Comparison of Effects of 1-Methylnicotinamide and Angiotensin-converting Enzyme Inhibitor. Front Pharmacol 2017; 8:183. doi:10.3389/fphar.2017.00183.).
Vasomotor response was examined by comparing two time-resolved 3D images of the vessels prior to and 25 minutes after intraperitoneal Ach administration (Sigma-Aldrich, Poznan Poland: 50 μl, 16.6 mg/kg), as well as prior to and 5 minutes after vessel occlusion. Images were acquired using the cine IntraGate™ FLASH 3D sequence, reconstructed with the IntraGate 1.2.b.2 macro (Bruker). End-diastolic volumes of vessels were analyzed using ImageJ software 1.46r (NIH Bethesda, Md., USA) and scripts written in Matlab (MathWorks, Natick, Mass., USA). Imaging parameters included the following: repetition time (TR)—6.4 ms, echo time (TE)—1.4 ms, field of view (FOV) −30×30×5 mm3, matrix size—256×256×30, flip angle (FA)—30°, and number of accumulations (NA)—15, reconstructed to 7 cardiac frames. Total scan time was 10 minutes.

In series [4] the test system is thrombin generation in platelet-poor mice plasma. In words: Thrombin generation by calibrated automated thrombogram (CAT). The settings on record: either dose (0.03 or 10 mg/kg b.w./day), eight weeks. The series is classed as in vivo. The procedure: Thrombin generation was measured in platelet-poor mice plasma using calibrated automated thrombography (CAT) technique as described in Hemker H C, Giesen P, Al Dieri R, Regnault V, de Smedt E, Wagenvoord R, et al. Calibrated automated thrombin generation measurement in clotting plasma. Pathophysiol Haemost Thromb 2003; 33:4-15. doi:71636. Thrombin generation was activated by mixing 21 μl of diluted plasma (1:1 with BSAS buffer) with 7 μIL of fluorogenic substrate (Z-Gly-Gly-Arg-AMC, 16.6 mM) and 14 μl of trigger solution containing phospholipids, tissue factor and CaCl2 (4 μM, […] and 16.6 mM, respectively). In the calibration wells, the 14 μl of reagents were replaced with calibrator (102 nM). Immediately after the activation, 5 μl of the mixture was pipetted on paper disks in a flat bottom 96-well polystyrene plate and covered with 40 μl of mineral oil. Fluorescent signals were measured using the Fluoroskan Ascent software (Thermo Labsystems, Helsinki, Finland) and transformed into thrombin concentration as described in Hemker H C, Kremers R. Data management in Thrombin Generation. Thromb Res 2013; 131:3-11. doi:10.1016/j.thromres.2012.10.011. The parameters analyzed included endogenous thrombin potential (ETP), peak thrombin concentration (peak), and lag time.

The conditions of series [5]: mouse, in vivo, 5 mg/kg/day.
[6] abbreviates: 0.05 mg/kg b.w./day, eight weeks.
[7] abbreviates: 0.05 mg/kg b.w./day, four weeks, 15-week-old mice.

On to `CC(C)=CCC/C(C)=C/CC/C(C)=C/CC/C(C)=C/CC/C(C)=C/CC/C(C)=C/CC/C(C)=C/CC1=C(C)C(=O)c2ccccc2C1=O` [MK-7, menaquinone-7], for which, in series [1], the “mean reduction in measured pulse-wave velocity” value came out at 30%. The “concentration of NO3− in plasma” value in the series with ApoE/LDLR−/− mice [2] (0.03 and 10 mg/kg b.w./day) is given as “did not change significantly”. Also, the “increase in NO2− concentration in plasma” value in the series on ApoE/LDLR−/− mice [2] (high dose 10 mg/kg b.w./day) is approximately 42%; with ApoE/LDLR−/− mice [2] (low dose 0.03 mg/kg b.w./day), “about 58%”. Also, the “Ach response in AA, volume changes” value with ApoE/LDLR−/− mice [3] (setting [6]) was −0.65%; in the series with ApoE/LDLR−/− mice [3] (setting [7]) it was −1.59%; in the series on ApoE/LDLR−/− mice [3] (0.5 mg/kg b.w./day, two weeks) it was 1.52%; in the series on ApoE/LDLR−/− mice [3] (5 mg/kg b.w./day, two weeks) it was 0.16%. Also, the “FMD in FA, volume changes” value is given as 28.34% with ApoE/LDLR−/− mice [3] (setting [6]); 33.26% in the series on ApoE/LDLR−/− mice [3] (setting [7]); 28.57% in the series with ApoE/LDLR−/− mice [3] (0.5 mg/kg b.w./day, two weeks); 26.55% in the series with ApoE/LDLR−/− mice [3] (5 mg/kg b.w./day, two weeks). Also, the thrombin generation result in series [4] is recorded as “did not affect”. The “concentration of MK4 2,3-epoxide in plasma” value in series [5] is “maintained at similar level in all groups”. Further, the “plasma concentration of MK-4” value in series [5] is recorded as “dose-dependent increase”. For the same molecule, the “vitamin K1 and K1 2,3-epoxide plasma concentration” value in series [5] is given as “tent to decrease with increasing dose”.
